This passage reports IC50 results from patent publication US20240239752A1, “BICYCLIC HETEROAROMATIC INHIBITORS OF KLK5” (BioCryst Pharmaceuticals, Inc., priority 2021, published 2024).

Where only a bound is given, the exact number is not on record here.

The target in the experiment is T1, recombinant human KLK5 (Homo sapiens, UniProt Q9Y337).
T1 construct: purchased Novoprotein or R&D Systems C415 or 1108-SE
T1 sequence (Q9Y337 23-293): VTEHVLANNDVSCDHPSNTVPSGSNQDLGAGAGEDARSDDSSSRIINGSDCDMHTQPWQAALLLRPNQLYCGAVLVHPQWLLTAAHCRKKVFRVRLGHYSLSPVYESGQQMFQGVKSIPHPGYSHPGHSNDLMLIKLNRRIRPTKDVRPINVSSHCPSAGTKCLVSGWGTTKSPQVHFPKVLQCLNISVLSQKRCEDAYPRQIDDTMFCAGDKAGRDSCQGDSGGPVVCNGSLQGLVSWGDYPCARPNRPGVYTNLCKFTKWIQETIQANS
The experiment is described as follows: Kallikrein (KLK) 5 enzymatic assay (Boc-VPR-AMC fluorogenic substrate). It is filed as biochemical. As to conditions: recombinant human KLK5 0.1 μg/well, Boc-VPR-AMC 100 μM, pH 7.5, room temperature, 1% DMSO; tested a minimum of three times. Put shortly: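 Fluorogenic rate assay at pH 7.5 (0.1 M NaH2PO4, 1% DMSO, room temperature), run at least three times per compound. Compound was premixed with 0.1 μg/well recombinant human KLK5 before adding 100 μM Boc-VPR-AMC; AMC release was read at ex 380/em 460 nm, and IC50 derived from inhibition of rate vs DMSO control.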

By IC50 is commonly meant the concentration that inhibits the measured activity by half.

`Nc1nccc2c(-c3ccc4c(c3)c(COc3ccccc3CC(=O)O)nn4C3CN(CCO)C3)cccc12` [Compound 147c, 2-(2-((5-(1-aminoisoquinolin-5-yl)-1-(1-(2-hydroxyethyl)azetidin-3-yl)-1H-indazol-3-yl)methoxy)phenyl)acetic acid]: the half-maximal inhibitory concentration (IC50) is < 1000 nM. With `Nc1nccc2ccc(-c3ccc4c(c3)c(COc3ccccc3CC(=O)O)nn4C3CN(CCO)C3)cc12` [Compound 148b, 2-(2-((5-(1-aminoisoquinolin-7-yl)-1-(1-(2-hydroxyethyl)azetidin-3-yl)-1H-indazol-3-yl)methoxy)phenyl)acetic acid], the IC50 is < 1000 nM.

As for `Nc1nccc2ccc(-c3ccc4nn(C5CCC5)c(COc5cc(F)ccc5CC(=O)O)c4c3)cc12` [Compound 149d, 2-(2-((5-(1-aminoisoquinolin-7-yl)-2-cyclobutyl-2H-indazol-3-yl)methoxy)-4-fluorophenyl)acetic acid], the IC50 is 1000 to 10000 nM. With `Nc1nccc2c(-c3ccc4nn(C5CCC5)c(COc5cc(F)ccc5CC(=O)O)c4c3)cccc12` [Compound 150b, 2-(2-((5-(1-aminoisoquinolin-5-yl)-2-cyclobutyl-2H-indazol-3-yl)methoxy)-4-fluorophenyl)acetic acid], the IC50 was < 1000 nM.

Consider `Nc1nccc2ccc(-c3ccc4nn(C5CCC5)c(COc5cc(C(F)(F)F)ccc5CC(=O)O)c4c3)cc12` [Compound 151d, 2-(2-((5-(1-aminoisoquinolin-7-yl)-2-cyclobutyl-2H-indazol-3-yl)methoxy)-4-(trifluoromethyl)phenyl)acetic acid], for which the IC50 was > 10000 nM.

On to `Nc1nccc2c(-c3ccc4nn(C5CCC5)c(COc5cc(C(F)(F)F)ccc5CC(=O)O)c4c3)cccc12` [Compound 152b, 2-(2-((5-(1-aminoisoquinolin-5-yl)-2-cyclobutyl-2H-indazol-3-yl)methoxy)-4-(trifluoromethyl)phenyl)acetic acid], for which the IC50 was in the range of 1000 to 10000 nM. The value for `Nc1nccc2ccc(-c3ccc4nn(C5CCC5)c(COc5cc(OC(F)(F)F)ccc5CC(=O)O)c4c3)cc12` [Compound 153d, 2-(2-((5-(1-aminoisoquinolin-7-yl)-2-cyclobutyl-2H-indazol-3-yl)methoxy)-4-(trifluoromethoxy)phenyl)acetic acid] was > 10000 nM; that for `Nc1nccc2c(-c3ccc4nn(C5CCC5)c(COc5cc(OC(F)(F)F)ccc5CC(=O)O)c4c3)cccc12` [Compound 154b, 2-(2-((5-(1-aminoisoquinolin-5-yl)-2-cyclobutyl-2H-indazol-3-yl)methoxy)-4-(trifluoromethoxy)phenyl)acetic acid] was 1000 to 10000 nM; that for `Cc1ccc(OCc2c3cc(-c4ccc5ccnc(N)c5c4)ccc3nn2C2CCC2)c(CC(=O)O)c1` [Compound 155d, 2-(2-((5-(1-aminoisoquinolin-7-yl)-2-cyclobutyl-2H-indazol-3-yl)methoxy)-5-methylphenyl)acetic acid] was 1000 to 10000 nM. The value for `Cc1ccc(OCc2c3cc(-c4cccc5c(N)nccc45)ccc3nn2C2CCC2)c(CC(=O)O)c1` [Compound 156b, 2-(2-((5-(1-aminoisoquinolin-5-yl)-2-cyclobutyl-2H-indazol-3-yl)methoxy)-5-methylphenyl)acetic acid] was 1000 to 10000 nM; that for `COc1ccc(OCc2c3cc(-c4ccc5ccnc(N)c5c4)ccc3nn2C2CCC2)c(CC(=O)O)c1` [Compound 157d, 2-(2-((5-(1-aminoisoquinolin-7-yl)-2-cyclobutyl-2H-indazol-3-yl)methoxy)-5-methoxyphenyl)acetic acid] was 1000 to 10000 nM.

`COc1ccc(OCc2c3cc(-c4cccc5c(N)nccc45)ccc3nn2C2CCC2)c(CC(=O)O)c1` [Compound 158b, 2-(2-((5-(1-aminoisoquinolin-5-yl)-2-cyclobutyl-2H-indazol-3-yl)methoxy)-5-methoxyphenyl)acetic acid]: the IC50 is 1000 to 10000 nM. The value for `Cc1cccc(CC(=O)O)c1OCc1nn(C2CCC2)c2ccc(-c3ccc4ccnc(N)c4c3)cc12` [Compound 159g, 2-(2-((5-(1-aminoisoquinolin-7-yl)-1-cyclobutyl-1H-indazol-3-yl)methoxy)-3-methylphenyl)acetic acid] was 1000 to 10000 nM. With `Cc1cccc(CC(=O)O)c1OCc1nn(C2CCC2)c2ccc(-c3cccc4c(N)nccc34)cc12` [Compound 160b, 2-(2-((5-(1-aminoisoquinolin-5-yl)-1-cyclobutyl-1H-indazol-3-yl)methoxy)-3-methylphenyl)acetic acid], the IC50 lay in the range of 1000 to 10000 nM. The value for `Cc1cccc(OCc2nn(C3CCC3)c3ccc(-c4ccc5ccnc(N)c5c4)cc23)c1CC(=O)O` [Compound 161c, 2-(2-((5-(1-aminoisoquinolin-7-yl)-1-cyclobutyl-1H-indazol-3-yl)methoxy)-6-methylphenyl)acetic acid] was < 1000 nM. For `Cc1cccc(OCc2nn(C3CCC3)c3ccc(-c4cccc5c(N)nccc45)cc23)c1CC(=O)O` [Compound 162b, 2-(2-((5-(1-aminoisoquinolin-5-yl)-1-cyclobutyl-1H-indazol-3-yl)methoxy)-6-methylphenyl)acetic acid] the value was < 1000 nM; for `Cc1ccc(CC(=O)O)c(OCc2nn(C3CCC3)c3ccc(-c4cccc5c(N)nccc45)cc23)c1` [Compound 163c, 2-(2-((5-(1-aminoisoquinolin-5-yl)-1-cyclobutyl-1H-indazol-3-yl)methoxy)-4-methylphenyl)acetic acid], < 1000 nM; for `Cc1ccc(OCc2nn(C3CCC3)c3ccc(-c4ccc5ccnc(N)c5c4)cc23)c(CC(=O)O)c1` [Compound 164c, 2-(2-((5-(1-aminoisoquinolin-7-yl)-1-cyclobutyl-1H-indazol-3-yl)methoxy)-5-methylphenyl)acetic acid], 1000 to 10000 nM.

On to `Cc1ccc(OCc2nn(C3CCC3)c3ccc(-c4cccc5c(N)nccc45)cc23)c(CC(=O)O)c1` [Compound 165b, 2-(2-((5-(1-aminoisoquinolin-5-yl)-1-cyclobutyl-1H-indazol-3-yl)methoxy)-5-methylphenyl)acetic acid], for which the IC50 is < 1000 nM. For `Nc1nccc2ccc(-c3ccc4c(c3)c(COc3ccc(F)cc3CC(=O)O)nn4C3CCC3)cc12` [Compound 166d, 2-(2-((5-(1-aminoisoquinolin-7-yl)-1-cyclobutyl-1H-indazol-3-yl)methoxy)-5-fluorophenyl)acetic acid], the IC50 was < 1000 nM. For `Nc1nccc2c(-c3ccc4c(c3)c(COc3ccc(F)cc3CC(=O)O)nn4C3CCC3)cccc12` [Compound 167b, 2-(2-((5-(1-aminoisoquinolin-5-yl)-1-cyclobutyl-1H-indazol-3-yl)methoxy)-5-fluorophenyl)acetic acid] the value was < 1000 nM; for `Nc1nccc2c(-c3ccc4c(c3)c(COc3cc(F)ccc3CC(=O)O)nn4C3CCC3)cccc12` [Compound 168c, 2-(2-((5-(1-aminoisoquinolin-5-yl)-1-cyclobutyl-1H-indazol-3-yl)methoxy)-4-fluorophenyl)acetic acid], < 1000 nM; for `COc1ccc(CC(=O)O)c(OCc2nn(C3CCC3)c3ccc(-c4cccc5c(N)nccc45)cc23)c1` [Compound 169c, 2-(2-((5-(1-aminoisoquinolin-5-yl)-1-cyclobutyl-1H-indazol-3-yl)methoxy)-4-methoxyphenyl)acetic acid], < 1000 nM. For `COc1ccc(OCc2nn(C3CCC3)c3ccc(-c4ccc5ccnc(N)c5c4)cc23)c(CC(=O)O)c1` [Compound 170c, 2-(2-((5-(1-aminoisoquinolin-7-yl)-1-cyclobutyl-1H-indazol-3-yl)methoxy)-5-methoxyphenyl)acetic acid] the value was < 1000 nM; for `COc1ccc(OCc2nn(C3CCC3)c3ccc(-c4cccc5c(N)nccc45)cc23)c(CC(=O)O)c1` [Compound 171b, 2-(2-((5-(1-aminoisoquinolin-5-yl)-1-cyclobutyl-1H-indazol-3-yl)methoxy)-5-methoxyphenyl)acetic acid], < 1000 nM; for `COc1cccc(OCc2nn(C3CCC3)c3ccc(-c4ccc5ccnc(N)c5c4)cc23)c1CC(=O)O` [Compound 172d, 2-(2-((5-(1-aminoisoquinolin-7-yl)-1-cyclobutyl-1H-indazol-3-yl)methoxy)-6-methoxyphenyl)acetic acid], 1000 to 10000 nM. On to `COc1cccc(OCc2nn(C3CCC3)c3ccc(-c4cccc5c(N)nccc45)cc23)c1CC(=O)O` [Compound 173b, 2-(2-((5-(1-aminoisoquinolin-5-yl)-1-cyclobutyl-1H-indazol-3-yl)methoxy)-6-methoxyphenyl)acetic acid], for which the concentration for half-maximal inhibition (IC50) is < 1000 nM. The value for `CCOC(=O)Cc1cccc(C#N)c1OCc1nn(C2CCC2)c2ccc(Br)cc12` [Compound 174c, ethyl 2-(2-((5-bromo-1-cyclobutyl-1H-indazol-3-yl)methoxy)-3-cyanophenyl)acetate] was 1000 to 10000 nM; that for `N#Cc1cccc(CC(=O)O)c1OCc1nn(C2CCC2)c2ccc(-c3cccc4c(N)nccc34)cc12` [Compound 175b, 2-(2-((5-(1-aminoisoquinolin-5-yl)-1-cyclobutyl-1H-indazol-3-yl)methoxy)-3-cyanophenyl)acetic acid] was 1000 to 10000 nM; that for `Nc1nccc2ccc(-c3ccc4c(c3)c(COc3c(CC(=O)O)cccc3C(=O)O)nn4C3CCC3)cc12` [Compound 176a, 2-((5-(1-aminoisoquinolin-7-yl)-1-cyclobutyl-1H-indazol-3-yl)methoxy)-3-(carboxymethyl)benzoic acid] was < 1000 nM.
